Like-named read-outs stand apart in the source and are kept apart here.
How the values were obtained:
[1] = tested on: A549; experiment: Cell-based assay, anti-proliferative activity (Cell Counting Kit-8, 72 hours); conditions: Homo sapiens, A549 cells, read-out: IC50 (μM) A549
Method in brief: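 Seed cells in 96-well format; add inhibitors; measure growth by CCK-8 at end of exposure; derive IC50.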

[2] = target: SUV39H2 (Homo sapiens (Human), UniProt Q9H5I1); conditions: read-out: IC50 (μM) Suv 39H2 assay; enzyme assay
SUV39H2, sequence (Q9H5I1 whole entry): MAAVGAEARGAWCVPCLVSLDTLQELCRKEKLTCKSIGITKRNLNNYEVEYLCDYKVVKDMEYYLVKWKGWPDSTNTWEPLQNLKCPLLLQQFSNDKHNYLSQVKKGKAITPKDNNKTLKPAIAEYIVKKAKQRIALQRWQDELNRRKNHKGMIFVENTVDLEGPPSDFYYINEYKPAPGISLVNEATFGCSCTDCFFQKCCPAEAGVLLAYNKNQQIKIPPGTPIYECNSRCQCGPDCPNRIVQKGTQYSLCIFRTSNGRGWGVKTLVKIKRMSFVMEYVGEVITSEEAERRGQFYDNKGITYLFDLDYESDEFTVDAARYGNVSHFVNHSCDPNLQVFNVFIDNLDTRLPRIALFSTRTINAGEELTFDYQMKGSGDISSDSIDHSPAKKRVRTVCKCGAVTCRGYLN

[3] = tested on: HCT-116; experiment: Cell-based assay, anti-proliferative activity (Cell Counting Kit-8, 72 hours); conditions: Homo sapiens, HCT-116 cells, read-out: IC50 (μM) HCT-116
Method in brief: (§1)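 Seed cells in 96-well plates; add serially diluted inhibitor (1.5625 to 100 micro-M plus vehicle); incubate 72 hours; quantify viable growth by CCK-8 and calculate IC50.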

[4] = tested on: HFL1; experiment: as above; conditions: Homo sapiens, HFL1 cells, read-out: IC50 (μM) HFL1
Method in brief: as §1

[5] = tested on: CCD-18Co; experiment: as above; conditions: Homo sapiens, CCD-18Co cells, read-out: IC50 (μM) CCD-18Co
Method in brief: as §1

[6] = tested on: PC14; experiment: as above; conditions: Homo sapiens, PC-14, PC14 cells, read-out: IC50 (μM) PC14
Method in brief: as §1

For `COC(=O)N1CCN(c2ccn3cc(-c4cc(Cl)c(OC)cc4OC)nc3c2)CC1` [Example 99, methyl 4-[2-(5-chloro-2,4-dimethoxyphenyl)imidazo[1,2-a]pyridine-7-yl]piperazine-1-carboxylate], the IC50 ([1]; Cell Counting Kit-8, 72 hours) was 1.5 µM, the IC50 [2] was 0.00606 µM and the IC50 ([3]; Cell Counting Kit-8, 72 hours) was 1.5 µM. For the same compound, the IC50 ([4]; Cell Counting Kit-8, 72 hours) was 1.8 µM, the IC50 ([5]; Cell Counting Kit-8, 72 hours) was 1.6 µM and the IC50 ([6]; Cell Counting Kit-8, 72 hours) was 1.9 µM.

`COc1cc(OC)c(-c2cn3ccc(N4CCC(NS(C)(=O)=O)CC4)cc3n2)cc1Cl` [Example 128, N-{1-[2-(5-chloro-2,4-dimethoxyphenyl)imidazo[1,2-a]pyridin-7-yl]piperidin-4-yl}methanesulfonamide] showed an IC50 ([1]; Cell Counting Kit-8, 72 hours) of 1.5 µM, an IC50 [2] of 0.00883 µM and an IC50 ([3]; Cell Counting Kit-8, 72 hours) of 4.5 µM. For the same compound, the IC50 ([4]; Cell Counting Kit-8, 72 hours) was 0.58 µM, the IC50 ([5]; Cell Counting Kit-8, 72 hours) was 1.1 µM and the IC50 ([6]; Cell Counting Kit-8, 72 hours) was 1.8 µM.

Work on `COc1cc(OC)c(-c2cn3ccc(N4CCC(NS(=O)(=O)Cc5ccccc5)CC4)cc3n2)cc1Cl` [Example 175, N-{1-[2-(5-chloro-2,4-dimethoxyphenyl)imidazo[1,2-a]pyridin-7-yl]piperidin-4-yl}-1-phenylmethanesulfonamide] yielded an IC50 ([1]; Cell Counting Kit-8, 72 hours) of 2 µM, an IC50 [2] of 0.0263 µM and an IC50 ([3]; Cell Counting Kit-8, 72 hours) of 1.5 µM. The IC50 ([4]; Cell Counting Kit-8, 72 hours) was 1.9 µM, the IC50 ([5]; Cell Counting Kit-8, 72 hours) was 2 µM and the IC50 ([6]; Cell Counting Kit-8, 72 hours) was 1.8 µM.

`COc1cc(OCCCN(C)C)c(-c2cn3ccc(N4CCC(NC(=O)C(C)(C)C)CC4)cc3n2)cc1Cl` [Example 162, N-(1-(2-(5-chloro-2-(3-(dimethylamino)propoxy)-4-methoxyphenyl)-imidazo[1,2-a]pyridin-7-yl)piperidin-4-yl)pivalamide] showed an IC50 ([1]; Cell Counting Kit-8, 72 hours) of 2.8 µM, an IC50 [2] of 0.0211 µM and an IC50 ([3]; Cell Counting Kit-8, 72 hours) of 3.3 µM. It also gave an IC50 ([4]; Cell Counting Kit-8, 72 hours) of 2.1 µM, an IC50 ([5]; Cell Counting Kit-8, 72 hours) of 5 µM and an IC50 ([6]; Cell Counting Kit-8, 72 hours) of 2.1 µM.

In the case of `COc1cc(OC)c(-c2cn3ccc(N4CCC(N)C4)cc3n2)cc1Cl` (stereo not drawn) [Example 33, 1-[2-(5-chloro-2,4-dimethoxyphenyl)imidazo[1,2-a]pyridin-7-yl]pyrrolidin-3-amine], the IC50 ([1]; Cell Counting Kit-8, 72 hours) is reported as 3.1 µM, the IC50 [2] is reported as 0.00704 µM and the IC50 ([3]; Cell Counting Kit-8, 72 hours) is reported as 3.3 µM. It also gave an IC50 ([4]; Cell Counting Kit-8, 72 hours) of 2.2 µM, an IC50 ([5]; Cell Counting Kit-8, 72 hours) of 3.2 µM and an IC50 ([6]; Cell Counting Kit-8, 72 hours) of 1.7 µM.

For `COc1cc(OC)c(-c2cn3ccc(-c4ccc(C(=O)NCCNCCNC(=O)OC(C)(C)C)cc4)cc3n2)cc1Cl` [Example 269, tert-butyl (2-((2-(4-(2-(5-chloro-2,4-dimethoxyphenyl)imidazo[1,2-a]pyridin-7-yl)benzamido)ethyl)amino)ethyl)carbamate], the IC50 ([1]; 72 hours, Cell Counting Kit-8) was 1.2 µM, the IC50 [2] was 0.0408 µM and the IC50 ([3]; 72 hours, Cell Counting Kit-8) was 0.75 µM. The IC50 ([4]; 72 hours, Cell Counting Kit-8) was 1.3 µM, the IC50 ([5]; 72 hours, Cell Counting Kit-8) was 0.87 µM and the IC50 ([6]; 72 hours, Cell Counting Kit-8) was 0.94 µM.

`CCS(=O)(=O)N1CCCN(c2ccn3cc(-c4cc(Cl)c(OC)cc4OCCCN(C)C)nc3c2)CC1` [Example 215, 3-(4-chloro-2-(7-(4-(ethylsulfonyl)-1,4-diazepan-1-yl)imidazo[1,2-a]pyridin-2-yl)-5-methoxyphenoxy)-N,N-dimethylpropan-1-amine] showed an IC50 ([1]; 72 hours, Cell Counting Kit-8) of 10 µM, an IC50 [2] of 0.0135 µM and an IC50 ([3]; 72 hours, Cell Counting Kit-8) of 10 µM. The IC50 ([4]; 72 hours, Cell Counting Kit-8) was 6.4 µM, the IC50 ([5]; 72 hours, Cell Counting Kit-8) was 7.4 µM and the IC50 ([6]; 72 hours, Cell Counting Kit-8) was 6.5 µM.

`COc1cc(OC)c(-c2cn3ccc(NC(=O)[C@@H]4CCCN4)cc3n2)cc1Cl` [Example 244, (S)—N-(2-(5-chloro-2,4-dimethoxyphenyl)imidazo[1,2-a]pyridin-7-yl)-pyrrolidine-2-carboxamide] was tested, and the IC50 ([1]; 72 hours, Cell Counting Kit-8) was 10 µM, the IC50 [2] was 0.0533 µM and the IC50 ([3]; 72 hours, Cell Counting Kit-8) was 10 µM. The IC50 ([4]; 72 hours, Cell Counting Kit-8) was 9.8 µM, the IC50 ([5]; 72 hours, Cell Counting Kit-8) was 8.8 µM and the IC50 ([6]; 72 hours, Cell Counting Kit-8) was 5.2 µM.

`COc1cc(OC)c(-c2cn3ccc(N4CCN(CCN5CCOCC5)CC4)cc3n2)cc1Br` [Example 131, 4-(2-(4-(2-(5-bromo-2,4-dimethoxyphenyl)imidazo[1,2-a]pyridin-7-yl)-piperazin-1-yl)ethyl)morpholine] showed an IC50 ([1]; Cell Counting Kit-8, 72 hours) of 8.3 µM, an IC50 [2] of 0.00349 µM and an IC50 ([3]; Cell Counting Kit-8, 72 hours) of 8.4 µM. It also gave an IC50 ([4]; Cell Counting Kit-8, 72 hours) of 7.3 µM, an IC50 ([5]; Cell Counting Kit-8, 72 hours) of 8.3 µM and an IC50 ([6]; Cell Counting Kit-8, 72 hours) of 6.8 µM.

Compound `COc1cc(OC)c(-c2cn3ccc(NC(=O)CNC(=O)OC(C)(C)C)cc3n2)cc1Cl` [Example 161, tert-butyl (2-((2-(5-chloro-2,4-dimethoxyphenyl)imidazo[1,2-a]pyridin-7-yl)-amino)-2-oxoethyl)carbamate] has an IC50 ([1]; Cell Counting Kit-8, 72 hours) of 8.8 µM, an IC50 [2] of 0.0379 µM and an IC50 ([3]; Cell Counting Kit-8, 72 hours) of 7 µM. For the same compound, the IC50 ([4]; Cell Counting Kit-8, 72 hours) was 8.4 µM, the IC50 ([5]; Cell Counting Kit-8, 72 hours) was 7.8 µM and the IC50 ([6]; Cell Counting Kit-8, 72 hours) was 8.7 µM.

Source: US10508109B2 (priority 2015, dated 2019)
